In patent US20250152660A1, “SCO-spondin-derived polypeptides for treating biological barriers dysfunction” (AXOLTIS PHARMA, priority 2021, published 2025):
Several values for one entry are separate records, joined by “and”; a condition that tells them apart may be missing. Equal values may be shown once. Bridges are numbered along the chain shown (N, C = ends). Where no end group is shown, it is not given here.

Columns and labels:
Format in all cases: cell-based
[1] = system: mouse brain endothelial bEnd.3 cells; experiment: Permeability of mouse brain endothelial cell monolayer to FITC-40 kDa Dextran; conditions: for Permeability to FITC-40 kDa Dextran (endothelial permeability coefficient Pe): individual replicates N1-N3
Experimental: To determine the effect of NX218 on the permeability of mouse brain endothelial cells to a 40-kDa FITC Dextran, cells were grown on a semi-permeable membrane inserted in culture wells in presence or absence of NX218. Then, the FITC Dextran was placed on the apical chamber (containing the cells) and its levels measured (based on its fluorescence) one hour later in the basolateral chamber.
Mouse brain endothelial cells (bEnd.3, American Type Culture Collection) were cultured in DMEM supplemented with 10% FBS and 2 mM sodium pyruvate in a 5% CO2 incubator at 37° C.
bEnd.3 cells were grown to confluence on 1% fibronectin-coated Corning HTS 24-well Transwell polyester inserts with a pore size of 0.4 μm (5×10^4 cells per well containing 200 μL and 800 μL of culture medium in the apical and basolateral compartments respectively) and treated with vehicle or NX218 (1, 10 and 100 μM) for 1, 2 or 3 days. Two hundred (200) μL of 1 mg/mL of a 40-kDa FITC Dextran in DMEM supplemented with 10% FBS and 2 mM sodium pyruvate were added to the apical chamber of each well, and the cells were incubated at 37° C. Sampling aliquots were taken from the basolateral chamber and replaced with fresh medium every 15 min for 1 h and then transferred to 96-well plates. FITC-Dextran fluorescence was determined using a spectrofluorometer at an excitation wavelength of 485 nm and an emission wavelength of 520 nm. Relative fluorescence units were converted to values of nanograms per milliliter, using FITC-Dextran standard curves, and was corrected for background fluorescence and serial dilutions over the course of the experiment. The data are expressed as the endothelial permeability coefficient (Pe) in cm/min.

[2] = system: mouse brain endothelial bEnd.3 cells; experiment: Transendothelial electrical resistance (TEER) of mouse brain endothelial cell monolayer on Transwell inserts; conditions: for TEER change relative to control, Average / TEER change relative to control: bEnd.3
Experimental: (§1) To determine the effect of NX218 on transendothelial electrical resistance (TEER) of mouse brain endothelial cells, cells were grown on a semi-permeable membrane inserted in culture wells in presence or absence of NX218 and the TEER was recorded using electrodes placed on each side of the membrane and a resistance meter.
Mouse brain endothelial cells (bEnd.3, American Type Culture Collection) were cultured in Dulbecco's modified Eagle's Medium (DMEM) supplemented with 10% fetal bovine serum (FBS) and 2 mM sodium pyruvate in a 5% CO2 incubator at 37° C.
bEnd.3 cells were grown on 6.5-mm-diameter, 0.4-μm-pore, polyester membrane HTS Transwell inserts (5×10^4 cells per well containing 200 μL and 800 μL of culture medium in the apical and basolateral compartments respectively). Three days after seeding, cells were treated with vehicle or NX218 (1, 10 and 100 μM) for 1, 2 or 3 days. TEER values were measured using an EVOM resistance meter fitted with “chopstick” electrodes. One electrode was placed in the apical chamber and another one in the basolateral chamber. Before measurements, chambers were replaced with fresh medium.

[3] = system: primary human umbilical vein endothelial cells (HUVEC); experiment: Transendothelial electrical resistance (TEER) of primary human umbilical vein endothelial cell monolayer; conditions: for TEER change relative to control, Average: average of N1-N9, control = 100; for TEER change relative to control: control average = 100, individual replicates N1-N9
Experimental: as §1, with “primary human umbilical vein” for “mouse brain”, “cells (HUVEC),” for “cells,”
HUVEC (PromoCell, C-12208) were cultured in EBM-2 basal media supplemented with bullet kit reagents (both from Lonza) in a 5% CO2 incubator at 37° C.
HUVEC were grown on 6.5-mm-diameter, 0.4-μm-pore, polyester membrane HTS Transwell inserts (5×10^4 cells per well containing 200 μL and 800 μL of culture medium in the apical and basolateral compartments respectively). Two days after seeding, cells were treated with vehicle or NX218 (1, 10 and 100 μM) for 1 or 3 days. TEER values were measured using an EVOM resistance meter fitted with “chopstick” electrodes. One electrode was placed in the apical chamber and another one in the basolateral chamber. Before measurements, chambers were replaced with fresh medium.

## W-S-G-W-S-S-C-S-R-S-C-G (WSGWSSCSRSCG; disulfide 7-11 (inferred)) [NX218]
[1]; NX218 1 μM, 24 hours, average of N1-N3, control 0.066
  Permeability to FITC-40 kDa Dextran (Pe), Average: 1064 ×10⁻⁶ cm/s
[1]; NX218 1 μM, 24 hours
  Permeability to FITC-40 kDa Dextran (endothelial permeability coefficient Pe): 1020 ×10⁻⁶ cm/s and 971 ×10⁻⁶ cm/s and 1200 ×10⁻⁶ cm/s
[1]; NX218 1 μM, 48 hours, average of N1-N3, control 0.05616
  Permeability to FITC-40 kDa Dextran (Pe), Average: 896.3 ×10⁻⁶ cm/s
[1]; NX218 1 μM, 48 hours
  Permeability to FITC-40 kDa Dextran (endothelial permeability coefficient Pe): 963 ×10⁻⁶ cm/s and 781.5 ×10⁻⁶ cm/s and 944.3 ×10⁻⁶ cm/s
[1]; NX218 1 μM, 72 hours, average of N1-N3, control 0.0532667
  Permeability to FITC-40 kDa Dextran (Pe), Average: 906.3 ×10⁻⁶ cm/s
[1]; NX218 1 μM, 72 hours
  Permeability to FITC-40 kDa Dextran (endothelial permeability coefficient Pe): 942 ×10⁻⁶ cm/s and 942.2 ×10⁻⁶ cm/s and 834.8 ×10⁻⁶ cm/s
[1]; NX218 10 μM, 24 hours, average of N1-N3, control 0.066
  Permeability to FITC-40 kDa Dextran (Pe), Average: 977.3 ×10⁻⁶ cm/s
[1]; NX218 10 μM, 24 hours
  Permeability to FITC-40 kDa Dextran (endothelial permeability coefficient Pe): 892 ×10⁻⁶ cm/s and 1030 ×10⁻⁶ cm/s and 1010 ×10⁻⁶ cm/s
[1]; NX218 10 μM, 48 hours, average of N1-N3, control 0.05616
  Permeability to FITC-40 kDa Dextran (Pe), Average: 841.3 ×10⁻⁶ cm/s
[1]; NX218 10 μM, 48 hours
  Permeability to FITC-40 kDa Dextran (endothelial permeability coefficient Pe): 909 ×10⁻⁶ cm/s and 760 ×10⁻⁶ cm/s and 855 ×10⁻⁶ cm/s
[1]; NX218 10 μM, 72 hours, average of N1-N3, control 0.0532667
  Permeability to FITC-40 kDa Dextran (Pe), Average: 747.7 ×10⁻⁶ cm/s
[1]; NX218 10 μM, 72 hours
  Permeability to FITC-40 kDa Dextran (endothelial permeability coefficient Pe): 748.2 ×10⁻⁶ cm/s and 783 ×10⁻⁶ cm/s and 712 ×10⁻⁶ cm/s
[1]; NX218 100 μM, 24 hours, average of N1-N3, control 0.066
  Permeability to FITC-40 kDa Dextran (Pe), Average: 942 ×10⁻⁶ cm/s
[1]; NX218 100 μM, 24 hours
  Permeability to FITC-40 kDa Dextran (endothelial permeability coefficient Pe): 907 ×10⁻⁶ cm/s and 1012 ×10⁻⁶ cm/s and 906.3 ×10⁻⁶ cm/s
[1]; NX218 100 μM, 48 hours, average of N1-N3, control 0.05616
  Permeability to FITC-40 kDa Dextran (Pe), Average: 702 ×10⁻⁶ cm/s
[1]; NX218 100 μM, 48 hours
  Permeability to FITC-40 kDa Dextran (endothelial permeability coefficient Pe): 627 ×10⁻⁶ cm/s and 725 ×10⁻⁶ cm/s and 753 ×10⁻⁶ cm/s
[1]; NX218 100 μM, 72 hours, average of N1-N3, control 0.0532667
  Permeability to FITC-40 kDa Dextran (Pe), Average: 782 ×10⁻⁶ cm/s
[1]; NX218 100 μM, 72 hours
  Permeability to FITC-40 kDa Dextran (endothelial permeability coefficient Pe): 798 ×10⁻⁶ cm/s and 758.7 ×10⁻⁶ cm/s and 787.7 ×10⁻⁶ cm/s
[2]; 10 and 100 μM for 1, 2 or 3 days, compared with vehicle-treated monolayer
  Resistance (TEER), result in words: significantly increased in a dose dependent manner
[2]; FIG. 1, 1, 10, 100 μM for 24 h, 48 h or 72 h
  TEER: increases the transendothelial electrical resistance of mouse brain endothelial cell monolayer in a dose-dependent manner
[2]; NX218 1 μM, 24 hours, average of N1-N6, control = 1
  TEER change relative to control, Average: 1.095
[2]; NX218 1 μM, 24 hours, individual replicates N1-N6
  TEER change relative to control: 1.096 and 1.109 and 0.9761 and 1.051 and 1.197 and 1.139
[2]; NX218 1 μM, 48 hours, average of N1-N9, control = 1
  TEER change relative to control, Average: 1.089
[2]; NX218 1 μM, 48 hours, individual replicates N1-N9
  TEER change relative to control: 1.149 and 1.219 and 1.194 and 0.9888 and 1.006 and 1.056 and 0.9841 and 1.196 and 1.011
[2]; NX218 1 μM, 72 hours, average of N1-N9, control = 1
  TEER change relative to control, Average: 0.9718
[2]; NX218 1 μM, 72 hours, individual replicates N1-N9
  TEER change relative to control: 0.9966 and 1.022 and 1.007 and 1.003 and 0.9525 and 0.9474 and 0.9315 and 0.9406 and 0.9452
[2]; NX218 10 μM, 24 hours, average of N1-N6, control = 1
  TEER change relative to control, Average: 1.128
[2]; NX218 10 μM, 24 hours, individual replicates N1-N6
  TEER change relative to control: 1.027 and 1.068 and 1.072 and 1.178 and 1.212 (2×)
[2]; NX218 10 μM, 48 hours, average of N1-N9, control = 1
  TEER change relative to control, Average: 1.203
[2]; NX218 10 μM, 48 hours, individual replicates N1-N9
  TEER change relative to control: 1.219 (2×) and 1.334 and 1.016 (2×) and 1.053 and 1.28 and 1.381 and 1.312
[2]; NX218 10 μM, 72 hours, average of N1-N9, control = 1
  TEER change relative to control, Average: 1.196
[2]; NX218 10 μM, 72 hours, individual replicates N1-N9
  TEER change relative to control: 1.27 and 1.255 and 1.239 and 1.187 (3×) and 1.151 and 1.146 (2×)
[2]; NX218 100 μM, 24 hours, average of N1-N6, control = 1
  TEER change relative to control, Average: 1.307
[2]; NX218 100 μM, 24 hours, individual replicates N1-N6
  TEER change relative to control: 1.218 and 1.283 and 1.142 and 1.454 and 1.373 and 1.37
[2]; NX218 100 μM, 48 hours, average of N1-N9, control = 1
  TEER change relative to control, Average: 1.461
[2]; NX218 100 μM, 48 hours, individual replicates N1-N9
  TEER change relative to control: 1.547 and 1.404 and 1.498 and 1.223 and 1.284 and 1.173 and 1.725 and 1.72 and 1.571
[2]; NX218 100 μM, 72 hours, average of N1-N9, control = 1
  TEER change relative to control, Average: 1.446
[2]; NX218 100 μM, 72 hours, individual replicates N1-N9
  TEER change relative to control: 1.467 and 1.553 and 1.624 and 1.436 and 1.457 and 1.584 and 1.237 and 1.306 and 1.347
[3]; NX218 1 μM, 24 hours
  TEER change relative to control, Average: 104
  TEER change relative to control: 101.3 (3×) and 95.36 (2×) and 89.4 and 119.2 (2×) and 113.2
[3]; NX218 1 μM, 72 hours
  TEER change relative to control, Average: 101.1
  TEER change relative to control: 113.1 (2×) and 97.71 and 87.43 and 82.29 and 92.57 and 123.4 and 128.6 and 72
[3]; NX218 10 μM, 24 hours
  TEER change relative to control, Average: 119.2
  TEER change relative to control: 101.3 (2×) and 119.2 and 149 (2×) and 143 and 89.4 and 113.2 and 107.3
[3]; NX218 10 μM, 72 hours
  TEER change relative to control, Average: 109.7
  TEER change relative to control: 97.71 and 118.3 and 123.4 and 87.43 and 102.9 and 108 (2×) and 128.6 and 113.1
[3]; NX218 100 μM, 24 hours
  TEER change relative to control, Average: 158.9
  TEER change relative to control: 137.1 and 149 and 143 (2×) and 172.8 and 184.8 (2×) and 155 and 160.9
[3]; NX218 100 μM, 72 hours
  TEER change relative to control, Average: 131.4
  TEER change relative to control: 144 (2×) and 138.9 and 108 (2×) and 123.4 and 133.7 and 154.3 and 128.6
[3]; NX218 at 100 μM for 1 or 3 days, compared with vehicle
  Resistance (TEER), result in words: significantly increased in a dose dependent manner
